Test results from article PMC4168161, “A novel approach for the discovery of chemically diverse anti-malarial compounds targeting the Plasmodium falciparum Coenzyme A synthesis pathway” (Malaria Journal, 2014).

Tests used:
[1] = test system: Plasmodium falciparum strain 3D7; assay: Plasmodium falciparum growth inhibition imaging assay; format: cell-based; details: for SI (selectivity index): HEK293 IC50 value divided by P. falciparum IC50 value; for IC50: P. falciparum 3D7, 72 hr, n = 3
Protocol: In vitro parasite culture was maintained in RPMI with 10 mM Hepes (Life Technologies), 50 μg/ml hypoxanthine (Sigma) and 5 mg/ml AlbuMAX II® (Life Technologies). Human O + erythrocytes were obtained from the Australian Red Cross Blood Service (Agreement No: 13-04QLD-09). The parasites were maintained at 2-8% parasitaemia (% P) at 5% haematocrit (% H), incubated at 37°C, 5% CO2, 5%O2 and 90% N2 and 95% humidity. The well-established P. falciparum imaging assay was modified to allow assessment of chemical rescue with CoA. In brief, sorbitol (5% w/v) synchronization was performed twice, approximately 8 hr apart, on each synchronization day for two consecutive ring cycles, i.e., on day 1 and 3 of assay preparation. On day 2 the culture was split to approximately 2% trophozoite parasitaemia. On day 4 the culture was split to 1-1.5% trophozoite parasitaemia, which yielded approximately 8% ring parasitaemia after 48 hr (on day 5, i.e., the day of the assay set-up). Compound stocks (10 mM in 100% DMSO) were diluted 1:25 in sterile water, less than 24 hr prior to use. An additional 1:10 dilution was performed, resulting in a 1:250 overall compound dilution and a final DMSO concentration of 0.4%. For initial screening, compounds were tested at a final 2 μM concentration. For dose response curves of the active compounds, a semi-logarithmic serial dilution (containing three data points per log) was prepared at 40 μM top concentration for test compounds and 2 μM for the positive control, artemisinin. The known P. falciparum CoA synthesis inhibitor, panthenol, was prepared as a 100 mM solution in 4% DMSO. The final concentration of the dose response curve of panthenol started at 10 mM and was serially diluted down to 100 nM. CoA was dissolved in water. The final CoA concentration for optimal rescue results was determined for each CoA batch and ranged between 0.8-2 mM. Five μl of the 1:25 diluted test compound or control solutions were added to 384-well CellCarrier imaging plates (PerkinElmer). For the chemical rescue, 5 μl of CoA solution were added to ‘rescue’ wells and 5 μl water to all control and reference wells, respectively. Parasite culture was added to a final concentration of 1% parasitaemia (% P) and 0.3% haematocrit (% H). Plates were incubated for 72 hr at 37°C, 5% CO2 and 95% humidity. On day 8 the permeabilization and nuclear staining buffer was prepared in PBS containing 10 μg/ml saponin, 0.01% triton X, 5 mM EDTA (all: Sigma) and 0.5 μg/ml 4′,6-diamidino-2-phenylindole (DAPI; Life Technologies). The plates were left for at least 4 hr (typically overnight), before confocal imaging on an Opera™ High Content Screening Platform (PerkinElmer) at 405 nm excitation with a 20x water objective. Automated primary image analysis was performed concurrent with the imaging process, utilizing an Acapella® software (PerkinElmer) script to determine the number of parasites based on object size and fluorescence intensity. Determination of the % growth compared to controls (2 μM artemisinin as positive and 0.4% DMSO as negative control) was performed in Microsoft® Excel 2010. Statistical analysis including IC50 determination and graphical output was performed in GraphPad Prism® 5 using non-linear regression variable slope curve fitting.

HEK293 cells = assay: CoA chemical rescue on HEK293 cells; format: cell-based, human; details: dose response with and without CoA, n = 2
Protocol: To assess cytotoxicity of compounds in dose response, a resazurin-based assay was utilized to determine cell viability. In brief, HEK293 cells were grown in DMEM medium (Life Technologies) containing 10% foetal calf serum (FCS; Gibco). Cells were trypsinized, counted and seeded at 2,000 cells per well in 45 μl media into TC-treated 384-well plates (Falcon) and left to adhere overnight at 37°C, 5% CO2 and 95% humidity.
Plates were incubated for 72 hr at 37°C, 5% CO2 and 95% humidity, then the media was removed and replaced by 35 μl of 44 μM resazurin in DMEM without FCS. The plates were incubated for another 4-6 hr at 37°C, 5% CO2 and 95% humidity before reading on an EnVision® Plate Reader (PerkinElmer) using fluorescence excitation/emission settings of 530 nm/595 nm. Determination of the% growth compared to controls (40 μM puromycin as positive and 0.4% DMSO as negative control) was performed in Microsoft® Excel 2010. Statistical analysis including IC50 determination and graphical output was performed in GraphPad Prism® 5 using nonlinear regression variable slope curve fitting.

SMILES	SI (selectivity index) [1]	SI (selectivity index) ([1]; listed as MMV000304)	IC50 [1] [µM]	cytotoxic effect on HEK293 cells upon CoA addition (HEK293 cells)
CCOc1ccc(Nc2c3ccccc3nc3ccccc23)cc1.Cl [MMV000304/Amb636705]	0.8	no parasite specificity	1.21	reduced upon CoA addition
CC(=O)c1ccc2c3c(onc13)-c1ccccc1C2=O [Amb3377585]	18		0.15	
CCc1ccc(Nc2cc(C)c3ccc(O)cc3n2)cc1.Cl [MMV000570/C614-0191]	~ 54		0.74	
CC1=CC(=O)C(C(C)C)=C/C1=N/OS(=O)(=O)c1ccccc1 [STK 740987]	> 105		0.38	
CC(C)=NOC(=O)c1c(C)noc1-c1snnc1C [SPB03400]			0.45	
COc1ccc2c(=O)cc(C(Cl)(Cl)Cl)oc2c1 [MMV665820/5534045]	6.2		0.58	
Cc1csc(Sc2ncnc3sccc23)n1 [Amb180780]	~ 333		0.12	
